The assay concerns the target F508del-CFTR (Homo sapiens, UniProt P13569, DEL508-508). Nature of the assay: HS-YFP kinetic fluorescence (iodide quenching rate) assay in CFBE41o− cells. Also noted: expressed in transfected cells; host or cells: CFBE41o- cells with expression of F508del-CFTR and HS-YFP (generated as in Sondo et al. 2011). It counts as cell-based. Particulars: compound at 10 μM plus VX-809. The essentials:
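CFBE41o- cells co-expressing F508del-CFTR and HS-YFP, treated 24 h with compound (0.1-0.2% DMSO), then stimulated with 20 μM forskolin plus 50 μM genistein. Fluorescence was read for 14 s during NaI injection. Background-subtracted, normalized traces were fitted exponentially to give maximum quenching rate (QR).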

Where [1] appears, read: Table 1, (QRTOT − QRVX)/QRVX, HS-YFP assay.

Chain of F508del-CFTR (P13569 with tags, fused parts or gaps DEL508-508): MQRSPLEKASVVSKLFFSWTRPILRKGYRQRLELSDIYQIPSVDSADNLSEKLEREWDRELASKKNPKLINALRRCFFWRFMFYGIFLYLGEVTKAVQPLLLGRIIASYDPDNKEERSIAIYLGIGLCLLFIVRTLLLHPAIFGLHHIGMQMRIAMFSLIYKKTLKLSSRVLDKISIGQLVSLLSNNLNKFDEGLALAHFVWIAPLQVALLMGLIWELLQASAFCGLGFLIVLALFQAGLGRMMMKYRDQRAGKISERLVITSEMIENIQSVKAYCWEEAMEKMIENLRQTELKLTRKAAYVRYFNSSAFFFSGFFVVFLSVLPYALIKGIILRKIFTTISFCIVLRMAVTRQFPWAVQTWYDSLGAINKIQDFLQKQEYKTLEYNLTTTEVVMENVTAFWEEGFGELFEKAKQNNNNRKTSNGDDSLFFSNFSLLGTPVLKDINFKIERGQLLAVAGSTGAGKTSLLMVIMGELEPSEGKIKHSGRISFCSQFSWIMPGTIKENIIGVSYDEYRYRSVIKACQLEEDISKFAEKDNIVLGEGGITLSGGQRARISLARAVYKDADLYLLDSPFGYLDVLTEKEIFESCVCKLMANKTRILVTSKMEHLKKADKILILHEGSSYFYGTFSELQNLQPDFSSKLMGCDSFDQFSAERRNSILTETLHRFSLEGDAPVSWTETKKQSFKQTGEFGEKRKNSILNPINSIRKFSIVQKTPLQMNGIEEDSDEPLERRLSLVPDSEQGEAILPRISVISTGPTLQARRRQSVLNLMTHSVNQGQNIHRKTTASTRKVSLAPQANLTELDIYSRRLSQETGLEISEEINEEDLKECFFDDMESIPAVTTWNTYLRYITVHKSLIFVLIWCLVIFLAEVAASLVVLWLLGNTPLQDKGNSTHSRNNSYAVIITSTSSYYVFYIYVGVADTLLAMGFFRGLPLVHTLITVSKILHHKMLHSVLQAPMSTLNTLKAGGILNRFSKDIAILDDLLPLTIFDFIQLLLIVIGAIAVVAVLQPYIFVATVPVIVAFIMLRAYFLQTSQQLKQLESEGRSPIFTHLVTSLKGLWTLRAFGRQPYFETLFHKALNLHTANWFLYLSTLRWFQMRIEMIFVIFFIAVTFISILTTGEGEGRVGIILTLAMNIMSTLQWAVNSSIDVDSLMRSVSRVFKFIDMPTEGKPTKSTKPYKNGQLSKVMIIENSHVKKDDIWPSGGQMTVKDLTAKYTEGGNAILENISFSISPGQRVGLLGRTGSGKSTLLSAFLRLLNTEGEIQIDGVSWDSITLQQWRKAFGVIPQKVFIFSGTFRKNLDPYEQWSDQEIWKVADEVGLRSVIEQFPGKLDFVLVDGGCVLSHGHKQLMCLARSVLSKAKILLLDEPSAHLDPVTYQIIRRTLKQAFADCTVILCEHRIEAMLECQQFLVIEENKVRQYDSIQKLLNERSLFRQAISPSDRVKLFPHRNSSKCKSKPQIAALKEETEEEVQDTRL

`Cc1cccc(Cn2c(C(=O)Nc3cc(C(C)(C)C)on3)c(Br)c3c2-c2[nH]c(=O)c(S(=O)(=O)c4ccccc4)cc2CC3)c1` [PP102, 7-(Benzenesulfonyl)-3-bromo-N-(5-tert-butyl-1,2-oxazol-3-yl)-1-[(3-methylphenyl)methyl]-8-oxo-4,5,8,9-tetrahydro-1H-pyrrolo[3,2-h]quinoline-2-carboxamide]: the “AI (%) additivity index” value under setting [1] is on record as 103%.

Take `Cc1cccc(Cn2c(C(=O)OC(C)C)cc3c2-c2[nH]c(=O)c(S(=O)(=O)c4ccccc4)cc2CC3)c1` [PP103, Propan-2-yl 7-(benzenesulfonyl)-1-[(3-methylphenyl)methyl]-8-oxo-4,5,8,9-tetrahydro-1H-pyrrolo[3,2-h]quinoline-2-carboxylate]: the “AI (%) additivity index” value under setting [1] turned out to be 284%.

`Cc1cccc(Cn2c(C(=O)OC(C)C)c(Br)c3c2-c2[nH]c(=O)c(S(=O)(=O)c4ccccc4)cc2CC3)c1` [PP104, Propan-2-yl 7-(benzenesulfonyl)-3-bromo-1-[(3-methylphenyl)methyl]-8-oxo-4,5,8,9-tetrahydro-1H-pyrrolo[3,2-h]quinoline-2-carboxylate]: the “AI (%) additivity index” value under setting [1] stood at 374%.

Turning to `CC(C)OC(=O)c1cc2c(n1CC1CC1)-c1[nH]c(=O)c(S(=O)(=O)c3ccccc3)cc1CC2` [PP105, Propan-2-yl 7-(benzenesulfonyl)-1-(cyclopropylmethyl)-8-oxo-4,5,8,9-tetrahydro-1H-pyrrolo[3,2-h]quinoline-2-carboxylate], the “AI (%) additivity index” value under setting [1] came to 174%.

For the molecule `CC(C)OC(=O)c1c(Br)c2c(n1CC1CC1)-c1[nH]c(=O)c(S(=O)(=O)c3ccccc3)cc1CC2` [PP106, Propan-2-yl 7-(benzenesulfonyl)-3-bromo-1-(cyclopropylmethyl)-8-oxo-4,5,8,9-tetrahydro-1H-pyrrolo[3,2-h]quinoline-2-carboxylate], under setting [1], the “AI (%) additivity index” value turned out to be 277%.

In the case of `CC(C)OC(=O)c1cc2c(n1Cc1ccc(F)cc1)-c1[nH]c(=O)c(S(=O)(=O)c3ccccc3)cc1CC2` [PP107, Propan-2-yl 7-(benzenesulfonyl)-1-[(4-fluorophenyl)methyl]-8-oxo-4,5,8,9-tetrahydro-1H-pyrrolo[3,2-h]quinoline-2-carboxylate], under setting [1], the “AI (%) additivity index” value was 335%.

For `CC(C)OC(=O)c1c(Br)c2c(n1Cc1ccc(F)cc1)-c1[nH]c(=O)c(S(=O)(=O)c3ccccc3)cc1CC2` [PP108, Propan-2-yl 7-(benzenesulfonyl)-3-bromo-1-[(4-fluorophenyl)methyl]-8-oxo-4,5,8,9-tetrahydro-1H-pyrrolo[3,2-h]quinoline-2-carboxylate], the “AI (%) additivity index” value under setting [1] is 257%.

`CCOC(=O)c1nn(Cc2ccc(C)cc2)c2c1CCc1cc(S(=O)(=O)c3ccccc3)c(=O)[nH]c1-2` [PZ1, Ethyl 7-(benzenesulfonyl)-1-[(4-methylphenyl)methyl]-8-oxo-4,5,8,9-tetrahydro-1H-pyrazolo[4,3-h]quinoline-3-carboxylate]: the “AI (%) additivity index” value (Table 6, (QRTOT-QRVX)/QRVX) is 88%.

Consider `CCOC(=O)c1nn(Cc2cccc(C)c2)c2c1CCc1cc(S(=O)(=O)c3ccccc3)c(=O)[nH]c1-2` [PZ3, Ethyl 7-(benzenesulfonyl)-1-[(3-methylphenyl)methyl]-8-oxo-4,5,8,9-tetrahydro-1H-pyrazolo[4,3-h]quinoline-3-carboxylate], for which, under “Table 6, (QRTOT-QRVX)/QRVX”, the “AI (%) additivity index” value came to 163%.

For `CCOC(=O)c1nn(Cc2ccc(Br)cc2)c2c1CCc1cc(S(=O)(=O)c3ccccc3)c(=O)[nH]c1-2` [PZ5, Ethyl 7-(benzenesulfonyl)-1-[(4-bromophenyl)methyl]-8-oxo-4,5,8,9-tetrahydro-1H-pyrazolo[4,3-h]quinoline-3-carboxylate], for the setting “Table 6, (QRTOT-QRVX)/QRVX”, the “AI (%) additivity index” value turned out to be 64%.

Turning to `CCOC(=O)c1nn(Cc2ccc(C)c(C)c2)c2c1CCc1cc(S(=O)(=O)c3ccccc3)c(=O)[nH]c1-2` [PZ7, Ethyl 7-(benzenesulfonyl)-1-[(3,4-dimethylphenyl)methyl]-8-oxo-4,5,8,9-tetrahydro-1H-pyrazolo[4,3-h]quinoline-3-carboxylate], for the setting “Table 6, (QRTOT-QRVX)/QRVX”, the “AI (%) additivity index” value is reported as 104%.
